System: YAP/TAZ-TEAD transcription
Experiment: Reporter gene assay for measuring the inhibition of YAP/TAZ-TEAD transcription
Type: cell-based
Conditions: Homo sapiens, HEK-293T; Hek293T cells transiently transfected with TEAD-responsive element luciferase reporter; 24 hours incubation
Procedure: Hek293T cells are cultured in DMEM supplemented with 10% fetal bovine serum, Sodium pyruvate, Sodium bicarbonate, L-glutamine. The cells are harvested and transiently transfected with TEAD-responsive element luciferase reporter. Transfected cells are plated in 384-wells plate containing pre-diluted compounds. After 24 hours incubation at 37° C./5% CO2, assay plates were cooled down to RT and levelled to an equal volume per well, prior to the addition of 25 uL luciferase substrate SteadyLite (Perkin Elmer)/well. The plate was shaken for 10 min at 600 rpm, centrifuged for 1 min at 500 rpm and measured with an Envision reader (PerkinElmer). The amount of relative light units produced by the TEAD reporter is used to calculated percent of inhibition.
The percent of reporter inhibition was calculated in the presence of a positive control inhibitor (100% inhibition) versus a condition with the presence of the vehicle basal activity of the reporter (0% inhibition). The ability of a test compound to inhibit this activity was determined as: Percentage inhibition=[1−((RLU determined in the presence of vehicle−RLU determined for sample with test compound present) divided by (RLU determined in the presence of vehicle−RLU determined for sample with positive control inhibitor))]*100 The activities of example compounds tested are depicted in Table 8. The activity ranges A, B and C refer to IC50 values in the reporter gene assay as follows: “A”: EC50<1 μM; “B”: 1 μM≤EC50≤3.0 μM and “C”: EC50>3.0 μM, NT=not tested.

Row | SMILES | EC50
1 | Cn1ccc(-c2nc(-c3ccccc3)nc3c2CC(N)CC3)n1 (stereo not drawn) [Cpd. No. 1, 4-(1-methyl-1H-pyrazol-3-yl)-2-phenyl-5,6,7,8-tetrahydroquinazolin-6-amine] | > 3000 nM
2 | C=CC(=O)NC1CCc2nc(-c3ccccc3)nc(-c3ccn(C)n3)c2C1 (stereo not drawn) [Cpd. No. 2, N-(4-(1-methyl-1H-pyrazol-3-yl)-2-phenyl-5,6,7,8-tetrahydroquinazolin-6-yl)acrylamide] | > 3000 nM
3 | CCC(=O)NC1CCc2nc(-c3ccccc3)nc(-c3ccn(C)n3)c2C1 (stereo not drawn) [Cpd. No. 3, N-(4-(1-methyl-1H-pyrazol-3-yl)-2-phenyl-5,6,7,8-tetrahydroquinazolin-6-yl)propionamide] | > 3000 nM
4 | Cn1ccc(-c2nc(-c3ccccc3)nc3c2CC(NS(C)(=O)=O)CC3)n1 (stereo not drawn) [Cpd. No. 4, N-(4-(1-methyl-1H-pyrazol-3-yl)-2-phenyl-5,6,7,8-tetrahydroquinazolin-6-yl)methanesulfonamide] | > 3000 nM
5 | Cn1ccc(-c2nc(-c3ccccc3)nc3c2CCC(N)C3)n1 (stereo not drawn) [Cpd. No. 5, 4-(1-methyl-1H-pyrazol-3-yl)-2-phenyl-5,6,7,8-tetrahydroquinazolin-7-amine] | > 3000 nM
6 | C=CC(=O)NC1CCc2c(nc(-c3ccccc3)nc2-c2ccn(C)n2)C1 (stereo not drawn) [Cpd. No. 6, N-(4-(1-methyl-1H-pyrazol-3-yl)-2-phenyl-5,6,7,8-tetrahydroquinazolin-7-yl)acrylamide] | > 3000 nM
7 | CCC(=O)NC1CCc2c(nc(-c3ccccc3)nc2-c2ccn(C)n2)C1 (stereo not drawn) [Cpd. No. 7, N-(4-(1-methyl-1H-pyrazol-3-yl)-2-phenyl-5,6,7,8-tetrahydroquinazolin-7-yl)propionamide] | > 3000 nM
8 | Cn1ccc(-c2nc(-c3ccccc3)nc3c2CCC(NS(C)(=O)=O)C3)n1 (stereo not drawn) [Cpd. No. 8, N-(4-(1-methyl-1H-pyrazol-3-yl)-2-phenyl-5,6,7,8-tetrahydroquinazolin-7-yl)methanesulfonamide] | > 3000 nM
9 | C=CC(=O)NC1CCc2nc(-c3ccccc3)nc(-c3ccn(Cc4cccnc4)n3)c2C1 (stereo not drawn) [Cpd. No. 9, N-(2-phenyl-4-(1-(pyridin-3-ylmethyl)-1H-pyrazol-3-yl)-5,6,7,8-tetrahydroquinazolin-6-yl)acrylamide] | > 3000 nM
10 | CCC(=O)NC1CCc2nc(-c3ccccc3)nc(-c3ccn(Cc4cccnc4)n3)c2C1 (stereo not drawn) [Cpd. No. 10, N-(2-phenyl-4-(1-(pyridin-3-ylmethyl)-1H-pyrazol-3-yl)-5,6,7,8-tetrahydroquinazolin-6-yl)propionamide] | > 3000 nM
11 | C=CC(=O)NC1CCc2c(nc(-c3ccccc3)nc2-c2ccn(Cc3cccnc3)n2)C1 (stereo not drawn) [Cpd. No. 11, N-(2-phenyl-4-(1-(pyridin-3-ylmethyl)-1H-pyrazol-3-yl)-5,6,7,8-tetrahydroquinazolin-7-yl)acrylamide] | 1000 to 3000 nM
12 | CCC(=O)NC1CCc2c(nc(-c3ccccc3)nc2-c2ccn(Cc3cccnc3)n2)C1 (stereo not drawn) [Cpd. No. 12, N-(2-phenyl-4-(1-(pyridin-3-ylmethyl)-1H-pyrazol-3-yl)-5,6,7,8-tetrahydroquinazolin-7-yl)propionamide] | > 3000 nM
13 | CS(=O)(=O)NC1CCc2c(nc(-c3ccccc3)nc2-c2ccn(Cc3cccnc3)n2)C1 (stereo not drawn) [Cpd. No. 13, N-(2-phenyl-4-(1-(pyridin-3-ylmethyl)-1H-pyrazol-3-yl)-5,6,7,8-tetrahydroquinazolin-7-yl)methanesulfonamide] | > 3000 nM
14 | C=CC(=O)N1Cc2nc(-c3ccccc3)nc(-c3ccn(C)n3)c2C1 [Cpd. No. 14, 1-(4-(1-methyl-1H-pyrazol-3-yl)-2-phenyl-5,7-dihydro-6H-pyrrolo[3,4-d]pyrimidin-6-yl)prop-2-en-1-one] | < 1000 nM
15 | CCC(=O)N1Cc2nc(-c3ccccc3)nc(-c3ccn(C)n3)c2C1 [Cpd. No. 15, 1-(4-(1-methyl-1H-pyrazol-3-yl)-2-phenyl-5,7-dihydro-6H-pyrrolo[3,4-d]pyrimidin-6-yl)propan-1-one] | > 3000 nM
16 | Cn1ccc(-c2nc(-c3ccccc3)nc3c2CN(S(C)(=O)=O)C3)n1 [Cpd. No. 16, 4-(1-methyl-1H-pyrazol-3-yl)-6-(methylsulfonyl)-2-phenyl-6,7-dihydro-5H-pyrrolo[3,4-d]pyrimidine] | > 3000 nM
17 | C=CC(=O)N1Cc2nc(Cc3ccccc3)nc(-c3ccn(Cc4cccnc4)n3)c2C1 [Cpd. No. 17, 1-(2-benzyl-4-(1-(pyridin-3-ylmethyl)-1H-pyrazol-3-yl)-5,7-dihydro-6H-pyrrolo[3,4-d]pyrimidin-6-yl)prop-2-en-1-one] | < 1000 nM

Row | SMILES | EC50
18 | CCC(=O)N1Cc2nc(Cc3ccccc3)nc(-c3ccn(Cc4cccnc4)n3)c2C1 [Cpd. No. 18, 1-(2-benzyl-4-(1-(pyridin-3-ylmethyl)-1H-pyrazol-3-yl)-5,7-dihydro-6H-pyrrolo[3,4-d]pyrimidin-6-yl)propan-1-one] | 1000 to 3000 nM
19 | CS(=O)(=O)N1Cc2nc(Cc3ccccc3)nc(-c3ccn(Cc4cccnc4)n3)c2C1 [Cpd. No. 19, 2-benzyl-6-(methylsulfonyl)-4-(1-(pyridin-3-ylmethyl)-1H-pyrazol-3-yl)-6,7-dihydro-5H-pyrrolo[3,4-d]pyrimidine] | 1000 to 3000 nM
20 | CCC(=O)N1Cc2nc(Cc3ccccc3)nc(-c3ccn(C)n3)c2C1 [Cpd. No. 21, 1-(2-benzyl-4-(1-methyl-1H-pyrazol-3-yl)-5,7-dihydro-6H-pyrrolo[3,4-d]pyrimidin-6-yl)propan-1-one] | 1000 to 3000 nM
21 | Cn1ccc(-c2nc(Cc3ccccc3)nc3c2CN(S(C)(=O)=O)C3)n1 [Cpd. No. 22, 2-benzyl-4-(1-methyl-1H-pyrazol-3-yl)-6-(methylsulfonyl)-6,7-dihydro-5H-pyrrolo[3,4-d]pyrimidine] | > 3000 nM
22 | C=CC(=O)N1Cc2nc(-c3ccccc3)nc(-c3ccn(Cc4cccnc4)n3)c2C1 [Cpd. No. 23, 1-(2-phenyl-4-(1-(pyridin-3-ylmethyl)-1H-pyrazol-3-yl)-5,7-dihydro-6H-pyrrolo[3,4-d]pyrimidin-6-yl)prop-2-en-1-one] | < 1000 nM
23 | CCC(=O)N1Cc2nc(-c3ccccc3)nc(-c3ccn(Cc4cccnc4)n3)c2C1 [Cpd. No. 24, 1-(2-phenyl-4-(1-(pyridin-3-ylmethyl)-1H-pyrazol-3-yl)-5,7-dihydro-6H-pyrrolo[3,4-d]pyrimidin-6-yl)propan-1-one] | 1000 to 3000 nM
24 | CS(=O)(=O)N1Cc2nc(-c3ccccc3)nc(-c3ccn(Cc4cccnc4)n3)c2C1 [Cpd. No. 25, 6-(methylsulfonyl)-2-phenyl-4-(1-(pyridin-3-ylmethyl)-1H-pyrazol-3-yl)-6,7-dihydro-5H-pyrrolo[3,4-d]pyrimidine] | 1000 to 3000 nM
25 | CC(=O)NCC(=O)N1Cc2nc(-c3ccccc3)nc(-c3ccn(Cc4cccnc4)n3)c2C1 [Cpd. No. 26, N-(2-oxo-2-(2-phenyl-4-(1-(pyridin-3-ylmethyl)-1H-pyrazol-3-yl)-5,7-dihydro-6H-pyrrolo[3,4-d]pyrimidin-6-yl)ethyl)acetamide] | > 3000 nM
26 | CC(=O)NCC(=O)N1Cc2nc(Cc3ccccc3)nc(-c3ccn(Cc4cccnc4)n3)c2C1 [Cpd. No. 27, N-(2-(2-benzyl-4-(1-(pyridin-3-ylmethyl)-1H-pyrazol-3-yl)-5,7-dihydro-6H-pyrrolo[3,4-d]pyrimidin-6-yl)-2-oxoethyl)acetamide] | > 3000 nM
27 | CS(=O)(=O)NCC(=O)N1Cc2nc(Cc3ccccc3)nc(-c3ccn(Cc4cccnc4)n3)c2C1 [Cpd. No. 28, N-(2-(2-benzyl-4-(1-(pyridin-3-ylmethyl)-1H-pyrazol-3-yl)-5,7-dihydro-6H-pyrrolo[3,4-d]pyrimidin-6-yl)-2-oxoethyl)methanesulfonamide] | > 3000 nM
28 | O=S(=O)(F)CCN1Cc2nc(-c3ccccc3)nc(-c3ccn(Cc4cccnc4)n3)c2C1 [Cpd. No. 29, 2-(2-phenyl-4-(1-(pyridin-3-ylmethyl)-1H-pyrazol-3-yl)-5,7-dihydro-6H-pyrrolo[3,4-d]pyrimidin-6-yl)ethane-1-sulfonyl fluoride] | > 3000 nM
29 | O=S(=O)(F)CCN1Cc2nc(Cc3ccccc3)nc(-c3ccn(Cc4cccnc4)n3)c2C1 [Cpd. No. 30, 2-(2-benzyl-4-(1-(pyridin-3-ylmethyl)-1H-pyrazol-3-yl)-5,7-dihydro-6H-pyrrolo[3,4-d]pyrimidin-6-yl)ethane-1-sulfonyl fluoride] | > 3000 nM
30 | CNS(=O)(=O)CCN1Cc2nc(-c3ccccc3)nc(-c3ccn(Cc4cccnc4)n3)c2C1 [Cpd. No. 31, N-methyl-2-(2-phenyl-4-(1-(pyridin-3-ylmethyl)-1H-pyrazol-3-yl)-5,7-dihydro-6H-pyrrolo[3,4-d]pyrimidin-6-yl)ethane-1-sulfonamide] | 1000 to 3000 nM
31 | CCC(=O)N1CCc2c(nc(Cc3ccccc3)nc2-c2ccn(C)n2)C1 [Cpd. No. 33, 1-(2-benzyl-4-(1-methyl-1H-pyrazol-3-yl)-5,8-dihydropyrido[3,4-d]pyrimidin-7(6H)-yl)propan-1-one] | > 3000 nM
32 | Cn1ccc(-c2nc(Cc3ccccc3)nc3c2CCN(S(C)(=O)=O)C3)n1 [Cpd. No. 34, 2-benzyl-4-(1-methyl-1H-pyrazol-3-yl)-7-(methylsulfonyl)-5,6,7,8-tetrahydropyrido[3,4-d]pyrimidine] | > 3000 nM
33 | CCC(=O)N1CCc2c(nc(Cc3ccccc3)nc2-c2ccn(Cc3cccnc3)n2)C1 [Cpd. No. 36, 1-(2-benzyl-4-(1-(pyridin-3-ylmethyl)-1H-pyrazol-3-yl)-5,8-dihydropyrido[3,4-d]pyrimidin-7(6H)-yl)propan-1-one] | 1000 to 3000 nM
